Experimental data reported in US6669925B1, “Sigma-2 receptors as biomarkers of tumor cell proliferation” (Wake Forest University, priority 2000, dated 2003).
Where two headings read alike, the source gives them in different places.

How the values were obtained:
[1] = biological target: T1, σ1 receptors (Cavia porcellus, UniProt Q60492); assay: In vitro binding to σ1 receptors: inhibition of [3H](+)-pentazocine binding to guinea pig brain homogenates
T1 construct: from tissue; host or cells: guinea pig brain homogenate (per the earlier reading's assay description)
From the text: (§1) The ability to bind to sigma-1 or sigma-2 can be measured using methods currently known to those of skill in the art or using those techniques described in U.S. application Ser. No. 60/013717, filed Mar. 30, 1996; in U.S. application Ser. No. 09/142935, filed Sep. 17, 1998; or in U.S. application Ser. No. 09/528398, filed Mar. 20, 2000.

[2] = biological target: T2, σ2 receptors (Rattus norvegicus, UniProt Q5U3Y7); assay: In vitro binding to σ2 receptors: inhibition of [3H]DTG binding to rat liver homogenates
T2 construct: from tissue; host or cells: rat liver homogenate (per the earlier reading's assay description)
T2 sequence (Q5U3Y7 1-176): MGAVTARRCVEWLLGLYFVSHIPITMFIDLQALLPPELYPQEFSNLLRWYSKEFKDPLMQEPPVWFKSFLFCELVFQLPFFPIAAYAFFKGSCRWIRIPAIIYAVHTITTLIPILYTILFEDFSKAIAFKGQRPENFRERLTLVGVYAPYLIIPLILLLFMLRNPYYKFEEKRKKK
From the text: as §1

[3] = Table I, guinea pig brain homogenates (n = 3-5), read-out: σ1: Ki for inhibition of the binding of [3H](+)-pentazocine
[4] = Table II, footnote a not given, read-out: σ1 (binding to σ1 receptors)
[5] = Table II, footnote b not given, read-out: σ2 (binding to σ2 receptors)

T1 sequence (Q60492 whole entry): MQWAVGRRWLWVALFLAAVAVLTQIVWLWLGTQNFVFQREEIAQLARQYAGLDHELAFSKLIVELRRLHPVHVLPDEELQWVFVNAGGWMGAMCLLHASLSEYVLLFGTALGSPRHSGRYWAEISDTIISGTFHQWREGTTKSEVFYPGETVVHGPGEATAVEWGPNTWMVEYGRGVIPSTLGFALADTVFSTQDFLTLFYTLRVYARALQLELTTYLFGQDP

| SMILES | Ki [1, 3] [nM] | Ki [2] [nM] | Ki [1] [nM] | Ki [1, 4] [nM] | Ki [2, 5] [nM] |
| --- | --- | --- | --- | --- | --- |
| COc1ccc(C)cc1NC(=O)OC1CC2CCCC(C1)N2CCCCCCCc1ccccc1 (stereo not shown) [Compound 6f] | 230 ± 28.6 | 7.6 ± 0.18 |  |  |  |
| COc1ccc(C)cc1NC(=O)OC1CC2CCCC(C1)N2Cc1ccccc1 (stereo not shown) [—, reference compound] |  | 3.06 ± 0.83 | 92.5 ± 11 |  |  |
| COc1ccc(C)cc1NC(=O)OC1CC2CCCC(C1)N2CCCc1ccccc1 (stereo not shown) [Compound 6b] |  | 1.97 ± 0.12 | 72.9 ± 1.6 |  |  |
| COc1ccc(C)cc1NC(=O)OC1CC2CCCC(C1)N2C/C=C/c1ccc(N)cc1 (stereo not shown) |  | 3.6 |  |  |  |
| COc1ccc(C)cc1NC(=O)OC1CC2CCCC(C1)N2CCCCCc1ccccc1 (stereo not shown) [Compound 6d] |  | 1.82 ± 0.19 | 17.3 ± 1.2 |  |  |
| COc1ccc(C)cc1NC(=O)OC1CC2CCCC(C1)N2CCc1ccccc1 (stereo not shown) [Compound 6a] |  | 1.2 ± 0.1 | 59.9 ± 4.6 |  |  |
| COc1ccc(C)cc1NC(=O)OC1CC2CCCC(C1)N2CCc1ccc(NC(=O)OC(C)(C)C)cc1 (stereo not shown) [Compound 7b] |  |  |  | > 1000 | > 1000 |
| COc1ccc(C)cc1NC(=O)OC1CC2CCCC(C1)N2CCCCCCc1ccccc1 (stereo not shown) [Compound 6e] | 214 ± 23.5 | 7.61 ± 0.41 |  |  |  |
| COc1ccc(C)cc1NC(=O)OC1CC2CCCC(C1)N2CCc1ccc(I)cc1 (stereo not shown) [Compound 7a] |  |  |  | 175 ± 6.71 | 141 ± 8.36 |
| COc1ccc(C)cc1NC(=O)OC1CC2CCCC(C1)N2CCCc1ccc(N)cc1 (stereo not shown) |  | 10.5 |  |  |  |
| COc1ccc(C)cc1NC(=O)OC1CC2CCCC(C1)N2CCc1ccc(N)cc1 (stereo not shown) [Compound 7c] |  | 7.78 ± 0.61 |  | > 1000 |  |
| COc1ccc(C)cc1NC(=O)OC1CC2CCCC(C1)N2CCCCc1ccccc1 (stereo not shown) [Compound 6c] |  | 2.92 ± 0.21 | 65.5 ± 4.3 |  |  |
